Reference: patent US6362369B1, “Phthalic acid diamide derivatives fluorine-containing aniline compounds as starting material, agricultural and horticultural insecticides, and a method for application of the insecticides” (Nihon Nohyaku Co., Ltd., priority 1997, dated 2002)

Assays:
Type in all cases: in vivo
[1] = test system: common cutworm (Spodoptera Litura); assay: Insecticidal effect on common cutworm (Test Example 2); settings: common cutworm second-instar larvae; cabbage leaf immersed, 500 ppm; eight days after inoculation; 25° C.
Procedure, shortened: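 After the treated material air-dries, it goes into a dish, second-instar larvae are added, and the dish is closed. Incubation runs at 25° C. On day eight, dead and living larvae are scored, and the calculated mortality is rated on an effect scale.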

[2] = test system: diamondback moth (Plutella xylostella); assay: Insecticidal effect on diamondback moth (Test Example 1); settings: diamondback moth; mortality judged by criterion of Test Example 1
Procedure, shortened: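 Oviposition by adults on Chinese cabbage seedling; immersion; air-dry; 25° C room. Count of hatched larvae at day 6 post-immersion → mortality → effect graded by criterion. Triplicate, 10 insects/group.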

[3] = test system: rice leafroller (Cnaphalocrocis medinalis); assay: Insecticidal effect on rice leafroller (Test Example 3); settings: rice leafroller third-instar larvae; rice lamina immersed, 500 ppm; four days after inoculation; 25° C., humidity 70%
Procedure, shortened: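 Insecticidal effect is judged by a predefined criterion from dead/alive counts four days after infesting air-dried lamina with third-instar larvae, kept on moistened filter paper at 25° C, 70% humidity.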

SMILES | Insecticidal effect, Test Example 2 [1] | Insecticidal effect, Test Example 1 [2] | Insecticidal effect, Test Example 3 [3]
CCNC(=O)c1cccc(I)c1C(=O)Nc1ccc(C(F)(F)C(F)(F)F)cc1C [compound 1314] | A (100) | A (100) | A (100)
Cc1cc(C(F)(F)C(F)(F)F)ccc1NC(=O)c1cccc(Cl)c1C(=O)NCC(C)O (stereo not drawn) [compound 1315] | A (100) | A (100) | A (100)
CCC(CO)NC(=O)c1c(Cl)cccc1C(=O)Nc1ccc(C(F)(F)C(F)(F)F)cc1C (stereo not drawn) [compound 1316] | A (100) | A (100) | A (100)
Cc1cc(C(F)(F)C(F)(F)F)ccc1NC(=O)c1cccc(Cl)c1C(=O)NC(C)(C)CO [compound 1317] | C (89-80) | A (100) | A (100)
Cc1cc(C#N)ccc1NC(=O)c1cccc(Cl)c1C(=O)NC(C)C [compound 1330] | A (100) | A (100) | A (100)
Cc1cc(C(F)(F)C(F)(F)F)ccc1NC(=O)c1cccc(Cl)c1C(=O)NCc1cccc(Cl)c1 [compound 1335] | C (89-80) | A (100) | A (100)
Cc1cc(C(F)(F)C(F)(F)F)ccc1NC(=O)c1cccc(Cl)c1C(=O)NCc1cccc(Cl)c1Cl [compound 1353] | A (100) | A (100) | A (100)
Cc1cc(C(F)(F)C(F)(F)F)ccc1NC(=O)c1cccc(Cl)c1C(=O)NCc1ccccn1 [compound 1355] | A (100) | A (100) | A (100)
Cc1cc(C(F)(F)C(F)(F)F)ccc1NC(=O)c1cccc(Cl)c1C(=O)NC(C)c1ccccc1Cl (stereo not drawn) [compound 1362] | A (100) | A (100) | A (100)
Cc1cc(C(F)(F)C(F)(F)F)ccc1NC(=O)c1cccc(Cl)c1C(=O)NC(C)c1cccc(Cl)c1 (stereo not drawn) [compound 1364] | A (100) | A (100) | A (100)
Cc1cc(C(F)(F)C(F)(F)F)ccc1NC(=O)c1cccc(Cl)c1C(=O)NC(C)c1ccc(Cl)cc1 (stereo not drawn) [compound 1366] | A (100) | A (100) | A (100)
CC(C)NC(=O)c1c(Cl)cccc1C(=O)Nc1ccc(C(F)(F)C(F)(F)F)cc1F [compound 1382] | A (100) | A (100) | A (100)
CC(C)NC(=O)c1c(Cl)cccc1C(=O)Nc1ccc(C(F)(F)C(F)(F)F)cc1Cl [compound 1383] | A (100) | A (100) | A (100)
CC(C)NC(=O)c1c(Cl)cccc1C(=O)Nc1ccc(C(F)(F)C(F)(F)F)cc1C(F)(F)F [compound 1384] | A (100) | A (100) | A (100)
CC(C)NC(=O)c1c(I)cccc1C(=O)Nc1ccc(C(F)(F)C(F)(F)F)cc1F [compound 1385] | A (100) | A (100) | A (100)
CC(C)NC(=O)c1c(I)cccc1C(=O)Nc1ccc(C(F)(F)C(F)(F)F)cc1Cl [compound 1386] | A (100) | A (100) | A (100)
CC(C)NC(=O)c1c(I)cccc1C(=O)Nc1ccc(C(F)(F)C(F)(F)F)cc1C(F)(F)F [compound 1387] | A (100) | A (100) | A (100)
COc1cc(C(F)(F)C(F)(F)F)ccc1NC(=O)c1cccc(I)c1C(=O)NC(C)C [compound 1388] | D (79-50) | A (100) | A (100)
Cc1cc(C#N)ccc1NC(=O)c1cccc(I)c1C(=O)NC(C)C [compound 1389] | A (100) | A (100) | A (100)
Cc1cc(C(F)(F)C(F)(F)F)ccc1NC(=O)c1cccc(Cl)c1C(=O)NCCCO [compound 1399] | A (100) | A (100) | A (100)
Cc1cc(C(F)(F)C(F)(F)F)ccc1NC(=O)c1cccc(I)c1C(=O)NCc1ccccc1 [compound 1400] | A (100) | A (100) | A (100)
Cc1cc(C(F)(F)C(F)(F)F)ccc1NC(=O)c1cccc(I)c1C(=O)NCc1ccccc1Cl [compound 1402] | A (100) | A (100) | A (100)
Cc1ccccc1CNC(=O)c1c(I)cccc1C(=O)Nc1ccc(C(F)(F)C(F)(F)F)cc1C [compound 1404] | C (89-80) | A (100) | A (100)
Cc1cc(C(F)(F)C(F)(F)F)ccc1NC(=O)c1cccc(Cl)c1C(=O)N(C)Cc1ccccc1 [compound 1406] | A (100) | A (100) | A (100)
C#CC(C)(C)NC(=O)c1ccccc1C(=O)Nc1ccc(C(F)(F)C(F)(F)F)cc1C [compound 1414] | A (100) | A (100) | A (100)
Cc1cc(C(F)(F)C(F)(F)F)ccc1NC(=O)c1cccc(Cl)c1C(=O)NC(C)(C)c1ccccc1 [compound 1417] | A (100) | A (100) | A (100)
Cc1cc(C(F)(F)C(F)(F)F)ccc1NC(=O)c1cccc(Cl)c1C(=O)NC(C)(C)Cc1ccccc1 [compound 1418] | A (100) | A (100) | A (100)
CC(C)(C)NC(=O)c1c(I)cccc1C(=O)Nc1ccc(C(F)(F)C(F)(F)F)cc1F [compound 1427] | A (100) | A (100) | A (100)
CC(C)(C)NC(=O)c1c(I)cccc1C(=O)Nc1ccc(C(F)(F)C(F)(F)F)cc1Cl [compound 1428] | A (100) | A (100) | A (100)
CC(C)(C)NC(=O)c1c(I)cccc1C(=O)Nc1ccc(C(F)(F)C(F)(F)F)cc1C(F)(F)F [compound 1429] | A (100) | A (100) | A (100)
